Measured values: patent US10125183B2, “Decoy peptides inhibiting binding of AMIGO2 and 3-phosphoinositide-dependent kinase 1” (Curacle Co., Ltd., priority 2015, dated 2018)
Where no end group is shown, it is not given here.

Legend:
[1] = system: HUVECs; test: FAK immunostaining, F-actin staining and apoptosis markers in siRNA-transfected HUVECs; format: cell-based, human
Method: (§1) HUVECs were transfected with scrambled (control) and human AMIGO2 siRNAs using Lipofectamine® (Invitrogen) for 3 h, and cells were assayed 48 h after transfection. Human AMIGO2 siRNA was designed by Invitrogen using the following sequences: 5′-[…]-3′ (SEQ ID NO: 8) and 5′-[…]-3′ (SEQ ID NO: 9). HUVECs were transfected with EGFP-tagged plasmids using Lipofectamine® LTX and PLUS™ (Invitrogen) for 2 h, and cells were assayed 24 h after transfection.
HUVECs were fixed in 3.7% formaldehyde for 10 min and permeabilized with 0.1% Triton X-100 on the ice. Cells were labeled with anti-FAK antibody (Santa Cruz Biotechnology), anti-PDK1 antibody (Cell Signaling Technology), anti-Akt antibody (Cell Signaling Technology), and anti-AMIGO2 antibody (Abcam) for 2 h at room temperature or overnight at 4° C. Afterwards, the cells were incubated with Alexa 488 and Alexa 546 secondary antibodies (Invitrogen) for 60 min at room temperature, and were then examined under a confocal microscope (LSM 700 META; Carl Zeiss).

[2] = system: HUVECs; test: EC adhesion assay; format: cell-based, human; conditions: siRNA-transfected HUVECs
Method: as §1
HUVECs transfected with siRNA were trypsinized and washed twice in phenol-free M199. Prior to seeding, a 96-well plate was coated with 2% gelatin, fibronectin (3 μg/ml in PBS), and collagen type I (10 μg/ml in PBS), and incubated at 37° C. for 1 h in a humidified incubator. Prior to the initiation of the experiments, the wells were rinsed twice with PBS. HUVECs were labeled with calcein AM, and 1.5×10^4 cells were seeded into each well of the 96-well plates. Cells were incubated for 1 h at 37° C., and non-adherent, calcein-labeled cells were removed by four washes. M199 containing 20% FBS was added to the cells in each well, and the fluorescence was measured (maximum absorbance at 494 nm and maximum emission at 517 nm) using a fluorescein filter set by FLUOstar Omega (BGM LABTECH).

[3] = system: HUVECs; test: HUVEC cell viability with or without VEGF; format: cell-based, human; conditions: in the presence or absence of VEGF
Method: Endothelial progenitor cells (EPC) were isolated from human umbilical cord blood as previously described (Maeng et al., 2009). Briefly, human umbilical cord blood samples (approximately 50 mL each) were collected from fresh placentas with attached umbilical cords by gravity flow. Human umbilical vein endothelial cells (HUVECs) were isolated from human umbilical cord veins using collagenase as described previously (Marin et al., 2001), and cells from passages three to six were used. HUVECs were cultured on 2% gelatin-coated dishes at 37° C. in a 5% CO2-humidified atmosphere using M199 medium (HyClone) containing 20% fetal bovine serum (FBS), 100 U/mL penicillin, 100 μg/mL streptomycin, 3 ng/mL bFGF (Upstate Biotechnology), and 5 U/mL heparin.
The PTD-A2 of FITC-linker-YGRKKRRQRRR-GKRVVFLEPLKDTA (SEQ ID NO: 37) (decoy peptide) and the control peptide (FITC-linker-YGRKKRRQRRR-GRVKTDFLAVPEKL (SEQ ID NO: 38)) (Con-pep) were obtained from Peptron. The experiment was performed using 5 μM concentration in vitro, 4 mg/kg was used for an animal experiment. Peptide treated HUVECs were incubated with serum-free M199 medium at 37° C.

[4] = system: Akt; test: Endogenous Akt signaling in AMIGO2 siRNA-transfected HUVECs; format: cell-based, human
Method: as §1

[5] = system: AMIGO2; test: In vivo siRNA injection and analysis of hyaloid vessels and retinas; set-up: species or system mouse
Method: The sequence 5′-[…]-3′ (SEQ ID NO: 28) (mouse AMIGO2 siRNA, Dharmacon) was mixed with the TransIT®-QR Starter Kit (Mirus), and subcutaneously injected to each mouse (5 μg/P3.5 mouse) (Behlke, 2006; Bonifazi et al., 2010; Inaba et al., 2012; Mammoto et al., 2009). Hyaloid vessels and retinas were prepared as previously described (Lobov et al., 2005). After 2 days, the differences of protein change, retina, and hyaloid vessels were analyzed.

[6] = target: T1, PH domain of PDK1 (Homo sapiens, UniProt O15530); test: Pull-down assay and Far-western analysis of truncated AMIGO2 CD mutants; format: binding; conditions: purified GST-tagged proteins
T1 construct: the purified His-tagged PH domain proteins were incubated with Ni^2+-NTA resins; made in house; host or cells: Escherichia coli BL21
T1 sequence (O15530 409-556): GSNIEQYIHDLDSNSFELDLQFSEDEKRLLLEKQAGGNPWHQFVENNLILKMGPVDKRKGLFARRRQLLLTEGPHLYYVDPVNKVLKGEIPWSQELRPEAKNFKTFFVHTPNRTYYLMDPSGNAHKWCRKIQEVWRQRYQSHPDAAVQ
Method: GST-CD, 420-484, 420-474, 420-464 and 420-454 were prepared with vector plasmids of pGEX 4T1 and pET32a followed by the preparation of His-PH.BamH1 (5′-[…]-3′) (SEQ ID NO: 29) and Xho1 (5′-[…]-3′ (SEQ ID NO: 30), CD; 5′-[…]-3′ (SEQ ID NO: 31), 420-484; 5′-[…]-3′ (SEQ ID NO: 32), 420-474; 5′-[…]-3′ (SEQ ID NO: 33), 420-464; and 5′-[…]-3′ (SEQ ID NO: 34), 420-454) were used, and BamH1 (5′-[…]-3′ (SEQ ID NO: 35)) and Xho1 (5′-[…]-3′ (SEQ ID NO: 36)) were used for preparing His-PH. The proteins were expressed in Escherichia coli BL21, and purified with glutathione-Sepharose 4B resin and Ni2+-NTA-agarose.
GST and His-fused proteins (1.5 mg/ml:1.5 mg/ml) were incubated for 2 h at 4° C., immobilized on Ni^2+-NTA resin or glutathione-Sepharose 4B beads, and incubated for 30 min. Proteins were then eluted with elution buffer (25 mM NaPi, 300 mM NaCl, 5 mM β-mercaptoethanol, 500 mM imidazole, pH 7.5), western blot was performed with anti-GST and His antibodies.
Far-western analysis was performed as previously described (Wu et al., 2007). Briefly, purified GST-tagged proteins (1 μg) were loaded and separated, and then transferred to PVDF membranes. The membranes were denatured and renatured, incubated with purified His-tagged PH domain proteins (10 μg), and then detected with anti-His antibody.

[7] = subcutaneous injection, 5 μg/P3.5 mouse, after 2 days

Molecule: 5′-UUAGGAUGCCCUCAGCUAUCACUGC-3′ (SEQ ID NO: 8) and 5′-AUUGUUGUAAAGCAGAAGCACUUCC-3′ (SEQ ID NO: 9) [AMIGO2 siRNA]
- active caspase-3 and FAK fragments [1]: detected
- expression of FAK (immunostaining) [1]: low
- F-actin depolymerization ([1]; rhodamine-phalloidin staining): exhibited F-actin depolymerization
- adhesion on ECM substrates (gelatin, fibronectin, collagen type I) [2]: reduced
- cell viability of siRNA-transfected HUVECs [3]: decreased
- Akt phosphorylation (Thr308 and Ser473) [4]: reduced

Molecule: 5′-UUGUACAAAAGAUCUCGCUGA-3′ (SEQ ID NO: 28) [AMIGO2-specific siRNA]
- Akt phosphorylation in hyaloid vessels and retinas ([5]; Amigo2-depleted mice): decreased
- expression of AMIGO2 in vivo ([5]; subcutaneous injection, 5 μg/P3.5 mouse): decreased
- hyaloid vessel structure [5, 7]: significant decreases
- retinal vessel growth and vascular areas [5, 7]: reduced

Molecule: 420-474: purified GST-tagged truncated mutant of the AMIGO2 cytosolic domain, residues 420-474 (TPCPCKCKTKRQKNMLHQSNAHSSILSPGPASDASADERKAGAGKRVVFLEPLKD; cysteine pairing not given here; also: GST-tagged)
- direct interaction with purified His-PDK1 PH [6]: directly interacted

B1: GST-tagged AMIGO2^CD: purified GST-tagged cytosolic domain of AMIGO2 (420-522aa) (protein)
chain: TPCPCKCKTKRQKNMLHQSNAHSSILSPGPASDASADERKAGAGKRVVFLEPLKDTAAGQNGKVRLFPSEAVIAEGILKSTRGKSDSDSVNSVFSDTPFVAST
modifications: left off: a dimerising Fc or GST
- direct interaction with purified His-PDK1 PH [6]: directly interacted

B2: 420-484: purified GST-tagged truncated mutant of the AMIGO2 cytosolic domain, residues 420-484 (protein)
chain: TPCPCKCKTKRQKNMLHQSNAHSSILSPGPASDASADERKAGAGKRVVFLEPLKDTAAGQNGKVR
modifications: also: GST-tagged
- direct interaction with purified His-PDK1 PH [6]: directly interacted
